Broadly, the EC50 is the concentration needed to bring the measured effect to its halfway point.

T1 sequence (Q92633 whole entry): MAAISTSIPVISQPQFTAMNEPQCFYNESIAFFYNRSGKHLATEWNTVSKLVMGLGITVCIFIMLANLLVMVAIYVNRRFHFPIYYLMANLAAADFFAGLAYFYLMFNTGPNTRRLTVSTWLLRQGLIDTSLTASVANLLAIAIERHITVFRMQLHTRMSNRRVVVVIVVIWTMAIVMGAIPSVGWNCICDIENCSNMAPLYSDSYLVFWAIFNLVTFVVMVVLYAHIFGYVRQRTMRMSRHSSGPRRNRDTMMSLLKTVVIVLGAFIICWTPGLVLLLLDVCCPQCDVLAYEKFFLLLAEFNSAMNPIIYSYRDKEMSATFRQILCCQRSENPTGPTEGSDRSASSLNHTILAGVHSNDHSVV

This experiment has as its target T1, human LPAR1 (Homo sapiens, UniProt Q92633).
T1 construct: host or cells: CHO-K1
The experiment is described as follows: LPAR1 intracellular calcium mobilization assay (antagonist mode). The following applies: CHO-K1 EDG2 cells expressing human LPAR1; 60 min pre-incubation with compound (0.5 nM to 10 μM), then LPA 18:2 challenge; FLIPR Tetra calcium signal. Format: cell-based. As to the method:
In vitro LPAR1 activity was measured in an intracellular calcium mobilization assay.
CHO-K1 EDG2 cells (DiscoverX cat #93-0644C2) expressing human LPAR1 (NM_001401.3) were seeded in a total volume of 25 μL of Dulbecco's Modification of Eagle's Medium (DMEM) with 10% Fetal Bovine Serum, 1× PenStrepGlutamine, 300 μg/ml Hygromycin, and 800 μg/ml G418 into 384-well tissue culture plate (Grenier #781091) at 15,000 cells/well and incubated at 37° C. overnight. Prior to testing, 25 μL Calcium Loading Dye Component A (FLIPR Calcium 6 Assay Kit Molecular Device #R8190) and 2.5 mM Probenecid (Invitrogen #P36400, prepared fresh) in Hank's Balanced Salt Solution (Corning #21-023-CV), 20 mM HEPES (Corning #25-060-CI), 0.1% Bovine Serum Albumin (Sigma-Aldrich #A7906-500G) was add to the cells for 60 minutes at 37° C.
Agonist dose curves of LPA 18:2 (Avanti Polar Lipids cat #857138, 0.5 nM to 10 μM) were recorded to determine the LPA 18:2 EC80 for subsequent antagonist assays. For agonist dose curves, cells were removed from the incubator 2 hours after dye loading and transferred to the FLIPR Tetra instrument (Molecular Devices, San Jose, CA). Calcium mobilization was monitored for 5 min and 10 μL 6×LPA in HBSS/20 mM Hepes/0.1% bovine serum albumin (BSA) was added to the cells 5 seconds into the assay.
To determine the LPAR1 antagonist activity of test compounds, cells were pre-incubated with test compound at a dose range of 0.5 nM to 10 μM, followed by LPA at […] concentration (100 nM). After dye loading, cells were removed from the incubator and 0.3 μL of 200× antagonist was added. Cells were incubated for 60 minutes at 37° C. Antagonist activity was measured on a FLIPR Tetra. Calcium mobilization was monitored for 3.5 minutes and 10 μL 6×EC80 LPA in HBSS, 20 mM HEPES, and 0.1% BSA was added to the cells 5 seconds into the assay. Signal amplitude (Maximum minus minimum) values were plotted against log10 of antagonist concentration using Dose Response Tool (Gilead Sciences Inc.) to determine EC50.
To assess the antagonistic potential of exemplified compounds EC50 values were determined for Compounds 1 to 55 in the LPAR1 calcium mobilization assay. The compound numbers correspond to the compound numbers in Examples 1 to 35. N/A=not available.
On the technique in general: Calcium flux is commonly read through the fluorescence of an indicator in the cells.
Take `C[C@@H](OC(=O)Nc1c(-c2ncc(NC(=O)c3ccc(Cl)nc3)cn2)cnn1C)c1cc(F)cnc1F` [Compound 26, (R)-1-(2,5-difluoropyridin-3-yl)ethyl (4-(5-(6-chloronicotinamido)pyrimidin-2-yl)-1-methyl-1H-pyrazol-5-yl)carbamate]: the EC50 was 20.6 nM. As for `C[C@@H](OC(=O)Nc1c(-c2ncc(NC(=O)c3ccc(C(F)(F)F)nc3)cn2)cnn1C)c1cc(F)cnc1F` [Compound 27, (R)-1-(2,5-difluoropyridin-3-yl)ethyl (1-methyl-4-(5-(6-(trifluoromethyl)nicotinamido)pyrimidin-2-yl)-1H-pyrazol-5-yl)carbamate], the figure is 28 nM. Regarding `C[C@@H](OC(=O)Nc1c(-c2ncc(NC(=O)C3(C(F)F)CC3)cn2)cnn1C)c1cc(F)cnc1F` [Compound 28, (R)-1-(2,5-difluoropyridin-3-yl)ethyl (4-(5-(1-(difluoromethyl)cyclopropane-1-carboxamido)pyrimidin-2-yl)-1-methyl-1H-pyrazol-5-yl)carbamate], the 50% effective concentration (EC50) amounted to 216 nM.

Consider `C[C@@H](OC(=O)Nc1c(-c2ncc(NC(=O)[C@@H]3C[C@H]3C(F)(F)F)cn2)cnn1C)c1cc(F)cnc1F` [Compound 29, (R)-1-(2,5-difluoropyridin-3-yl)ethyl (1-methyl-4-(5-((1R,2R)-2-(trifluoromethyl)cyclopropane-1-carboxamido)pyrimidin-2-yl)-1H-pyrazol-5-yl)carbamate], for which the EC50 was under 4.6 nM.

Regarding `C[C@@H](OC(=O)Nc1c(-c2ncc(NC(=O)C34CC(F)(C3)C4)cn2)cnn1C)c1cc(F)cnc1F` [Compound 30, (R)-1-(2,5-difluoropyridin-3-yl)ethyl (4-(5-(3-fluorobicyclo[1.1.1]pentane-1-carboxamido)pyrimidin-2-yl)-1-methyl-1H-pyrazol-5-yl)carbamate], the EC50 turned out to be 36.2 nM. On to `C[C@@H](OC(=O)Nc1c(-c2ncc(NC(=O)C34CC(C(F)F)(C3)C4)cn2)cnn1C)c1cc(F)cnc1F` [Compound 31, (R)-1-(2,5-difluoropyridin-3-yl)ethyl (4-(5-(3-(difluoromethyl)bicyclo[1.1.1]pentane-1-carboxamido)pyrimidin-2-yl)-1-methyl-1H-pyrazol-5-yl)carbamate], for which the EC50 was found to be 23.7 nM. As for `C[C@@H](OC(=O)Nc1c(-c2ncc(NC(=O)[C@@H]3C[C@H]3C(F)(F)F)cn2)cnn1C)c1cccnc1Cl` [Compound 32, (R)-1-(2-chloropyridin-3-yl)ethyl (1-methyl-4-(5-((1R,2R)-2-(trifluoromethyl)cyclopropane-1-carboxamido)pyrimidin-2-yl)-1H-pyrazol-5-yl)carbamate], the figure is under 4.6 nM; as for `C[C@@H](OC(=O)Nc1c(-c2ncc(NC(=O)[C@@H]3C[C@H]3c3cccnc3)cn2)cnn1C)c1cc(F)cnc1F` [Compound 33, (R)-1-(2,5-difluoropyridin-3-yl)ethyl (1-methyl-4-(5-((1R,2R)-2-(pyridin-3-yl)cyclopropane-1-carboxamido)pyrimidin-2-yl)-1H-pyrazol-5-yl)carbamate], 20.3 nM.

With `C[C@@H](OC(=O)Nc1c(-c2ncc(NC(=O)[C@@H]3C[C@H]3C(F)F)cn2)cnn1C)c1cc(F)cnc1F` [Compound 34, (R)-1-(2,5-difluoropyridin-3-yl)ethyl (4-(5-((1R,2R)-2-(difluoromethyl)cyclopropane-1-carboxamido)pyrimidin-2-yl)-1-methyl-1H-pyrazol-5-yl)carbamate], the EC50 stood at 11.6 nM. Then `C[C@@H](OC(=O)Nc1c(-c2ncc(NC(=O)C3(C)CC(F)(F)C3)cn2)cnn1C)c1cc(F)cnc1F` [Compound 35, (R)-1-(2,5-difluoropyridin-3-yl)ethyl (4-(5-(3,3-difluoro-1-methylcyclobutane-1-carboxamido)pyrimidin-2-yl)-1-methyl-1H-pyrazol-5-yl)carbamate], with 14 nM. Consider `C[C@@H](OC(=O)Nc1c(-c2ncc(NC(=O)C3CC(F)(F)C3)cn2)cnn1C)c1cc(F)cnc1F` [Compound 36, (R)-1-(2,5-difluoropyridin-3-yl)ethyl (4-(5-(3,3-difluorocyclobutane-1-carboxamido)pyrimidin-2-yl)-1-methyl-1H-pyrazol-5-yl)carbamate], for which the EC50 came out at 18.6 nM.

As to `C[C@@H](OC(=O)Nc1c(-c2ncc(NC(=O)C3(C(F)F)CC(F)(F)C3)cn2)cnn1C)c1cc(F)cnc1F` [Compound 37, (R)-1-(2,5-difluoropyridin-3-yl)ethyl (4-(5-(1-(difluoromethyl)-3,3-difluorocyclobutane-1-carboxamido)pyrimidin-2-yl)-1-methyl-1H-pyrazol-5-yl)carbamate], the EC50 was 7.9 nM.

Regarding `C[C@@H](OC(=O)Nc1c(-c2ncc(NC(=O)[C@]3(C)C[C@@H](C#N)C3)cn2)cnn1C)c1cc(F)cnc1F` [Compound 38, (R)-1-(2,5-difluoropyridin-3-yl)ethyl (4-(5-((1r,3R)-3-cyano-1-methylcyclobutane-1-carboxamido)pyrimidin-2-yl)-1-methyl-1H-pyrazol-5-yl)carbamate], the 50% effective concentration (EC50) amounted to 52.7 nM.

For `C[C@@H](OC(=O)Nc1c(-c2ncc(NC(=O)[C@@H]3C[C@H]3C#N)cn2)cnn1C)c1cc(F)cnc1F` [Compound 39, (R)-1-(2,5-difluoropyridin-3-yl)ethyl (4-(5-((1R,2R)-2-cyanocyclopropane-1-carboxamido)pyrimidin-2-yl)-1-methyl-1H-pyrazol-5-yl)carbamate], the concentration for a half-maximal effect (EC50) is 66.7 nM. Consider `C[C@@H](OC(=O)Nc1c(-c2ncc(NC(=O)[C@@H]3C[C@H]3C(F)(F)F)cn2)cnn1C)c1cccnc1F` [Compound 40, (R)-1-(2-fluoropyridin-3-yl)ethyl (1-methyl-4-(5-((1R,2R)-2-(trifluoromethyl)cyclopropane-1-carboxamido)pyrimidin-2-yl)-1H-pyrazol-5-yl)carbamate], for which the EC50 is under 4.6 nM.

With `C[C@@H](OC(=O)Nc1c(-c2ncc(NC(=O)C3(C)CC(F)(F)C3)cn2)cnn1C)c1cccnc1F` [Compound 41, (R)-1-(2-fluoropyridin-3-yl)ethyl (4-(5-(3,3-difluoro-1-methylcyclobutane-1-carboxamido)pyrimidin-2-yl)-1-methyl-1H-pyrazol-5-yl)carbamate], the EC50 was found to be 20.7 nM. As for `C[C@@H](OC(=O)Nc1c(-c2ncc(NC(=O)C3(C#N)CC3)cn2)cnn1C)c1cccnc1F` [Compound 42, (R)-1-(2-fluoropyridin-3-yl)ethyl (4-(5-(1-cyanocyclopropane-1-carboxamido)pyrimidin-2-yl)-1-methyl-1H-pyrazol-5-yl)carbamate], the figure is 54.9 nM; as for `COC1(C#N)CC(C(=O)Nc2cnc(-c3cnn(C)c3NC(=O)O[C@H](C)c3cc(F)cnc3F)nc2)C1` (stereo partly drawn) [Compound 43, (R)-1-(2,5-difluoropyridin-3-yl)ethyl (4-(5-(3-cyano-3-methoxycyclobutane-1-carboxamido)pyrimidin-2-yl)-1-methyl-1H-pyrazol-5-yl)carbamate], 22.6 nM; as for `C[C@@H](OC(=O)Nc1c(-c2ncc(O)cn2)cnn1C)c1cccnc1Cl` [Compound 44, (R)-1-(2-chloropyridin-3-yl)ethyl (4-(5-hydroxypyrimidin-2-yl)-1-methyl-1H-pyrazol-5-yl)carbamate], 120 nM. `C[C@@H](OC(=O)Nc1c(-c2ncc(O)cn2)cnn1C)c1cc(F)cnc1F` [Compound 45, (R)-1-(2,5-difluoropyridin-3-yl)ethyl (4-(5-hydroxypyrimidin-2-yl)-1-methyl-1H-pyrazol-5-yl)carbamate]: the EC50 came out at 301 nM. Then `C[C@@H](OC(=O)Nc1c(-c2ncc(C(=O)NC34CC(C#N)(C3)C4)cn2)cnn1C)c1cc(F)cnc1F` [Compound 46, (R)-1-(2,5-difluoropyridin-3-yl)ethyl (4-(5-((3-cyanobicyclo[1.1.1]pentan-1-yl)carbamoyl)pyrimidin-2-yl)-1-methyl-1H-pyrazol-5-yl)carbamate], with 158 nM; and `C[C@@H](OC(=O)Nc1c(-c2ncc(C(=O)NC34CC(F)(C3)C4)cn2)cnn1C)c1cc(F)cnc1F` [Compound 47, (R)-1-(2,5-difluoropyridin-3-yl)ethyl (4-(5-((3-fluorobicyclo[1.1.1]pentan-1-yl)carbamoyl)pyrimidin-2-yl)-1-methyl-1H-pyrazol-5-yl)carbamate], with 799 nM. As for `C[C@@H](OC(=O)Nc1c(-c2ccc(C(=O)NC34CC(C#N)(C3)C4)cn2)cnn1C)c1cccc(F)c1` [Compound 49], the figure is 1860 nM. As for `C[C@@H](OC(=O)Nc1c(-c2ccc(C(=O)NC34CC(F)(C3)C4)cn2)cnn1C)c1cccnc1Cl` [Compound 50], the figure is 869 nM.

Source of the values: patent publication US11980609B2, “LPA receptor antagonists and uses thereof” (Gilead Sciences, Inc., priority 2021, dated 2024).
